Molecules are shown by their SMILES.

The conditions of series [1]: cited from earlier work.
For series [2], the system named is anti-levetiracetam antibody prepared with immunogen 18a. The series can be described thus: Antibody avidity by ELISA binding inhibition study with levetiracetam. Conditions: Sheep No. 5479 antibody. Here is the method:
The avidity of the anti-levetiracetam antibody prepared with immunogen 18a for various levetiracetam derivatives were determined by a binding inhibition study. Samples were prepared in 1 mL of PBS at pH 7.4 with 0.1% BSA. A composition having 30% Bmax titer or 50% Bmax titer was used to divide the titer value as obtained in Example 38 into approximately half the titer value. Using 30% Bmax, an antibody titer of 1:10000 was diluted to […] during the sample preparation stage. About 50 μL of levetiracetam at different concentrations or calibrator values, (0, 5, 10, 20, 40, 80 μg/ml) were applied to a plate as prepared in accordance with Example 38. About 50 μL of the diluted antibody was dispensed into the plate, and the compositions in the plate were mixed for 1 min on a horizontal plate shaker. No levetiracetam or anti-levetiracetam antibody was added to the first row of the plate, which served as a negative control. A second row with anti-levetiracetam antibody but without levetiracetam was used as the positive control. The plate was incubated for 60 min and washed three times with 250 μL of PBS at pH 7.4 with 0.05% Tween 20. About 125 μL of a diluted derivative such as 18b or 19 in PBS at pH 7.4 was added to each well of the plate. The plate was incubated for 60 min at 37° C. and washed as described above. Approximately 125 μL of ABTS substrate was added to each well of the plate and incubated for 20 min.

For `O=C(O)CCCN1CCCC1=O` [2-pyrrolidone-N-butyric acid], the “share of the administered dose accounted for by metabolite excreted in urine” value in series [1] (urine, after administration of LEV) is listed as “approximately 27%”.

For `CC[C@@H](C(N)=O)N1CCCC1=O` [Levetiracetam, (−)-(S)-α-ethyl-2-oxo-1-pyrrolidine acetamide], in series [1] (in vivo), the nominal therapeutic range is 6 to 20 µg/mL. The “optimal trough serum/plasma concentration range” value in series [1] (trough, serum/plasma) is 10 to 60 mg/L. Further, the “given dose excreted unchanged in urine” value in series [1] (urine, elimination via the kidney) was “approximately 64%”. The B/Bo was 0.96 in series [2] (Levetiracetam 5 μg/mL, Antigen 18b); 0.98 in series [2] (Levetiracetam 5 μg/mL, Antigen 19); 0.98 in series [2] (Levetiracetam 10 μg/mL, Antigen 18b); 0.91 in series [2] (Levetiracetam 10 μg/mL, Antigen 19); 0.90 in series [2] (Levetiracetam 20 μg/mL, Antigen 18b); 0.86 in series [2] (Levetiracetam 20 μg/mL, Antigen 19). The B/Bo in series [2] (Levetiracetam 40 μg/mL, Antigen 18b) stood at 0.88; in series [2] (Levetiracetam 40 μg/mL, Antigen 19) it was 0.78; in series [2] (Levetiracetam 80 μg/mL, Antigen 18b), 0.87; in series [2] (Levetiracetam 80 μg/mL, Antigen 19) it was 0.77.
